Sequences and labels used below:
B1: rBRAK: recombinant BRAK (CXCL14 chemokine) (protein, UniProt O95715 35-111, looked up)
C-X-C motif chemokine 14: SKCKCSRKGPKIRYSDVKKLEMKPKYPHCEEKMVIITTKSVSRYRGQEHCLHPKLQSTKRFIKWYNAWNEKRRVYEE

Non-standard residues stand in square brackets, D forms with d. No end group written: not given here. Aun = NCCCCCCCCCCC(=O)O

One test has as its target T1, CXCR3 receptor (CXCR-3/300-19 cells) (Homo sapiens, UniProt P49682).
T1 construct: expressed in transfected cells; host or cells: 300-19 mouse pre-B lymphocytes (CXCR-3/300-19)
T1 sequence (P49682 1-368): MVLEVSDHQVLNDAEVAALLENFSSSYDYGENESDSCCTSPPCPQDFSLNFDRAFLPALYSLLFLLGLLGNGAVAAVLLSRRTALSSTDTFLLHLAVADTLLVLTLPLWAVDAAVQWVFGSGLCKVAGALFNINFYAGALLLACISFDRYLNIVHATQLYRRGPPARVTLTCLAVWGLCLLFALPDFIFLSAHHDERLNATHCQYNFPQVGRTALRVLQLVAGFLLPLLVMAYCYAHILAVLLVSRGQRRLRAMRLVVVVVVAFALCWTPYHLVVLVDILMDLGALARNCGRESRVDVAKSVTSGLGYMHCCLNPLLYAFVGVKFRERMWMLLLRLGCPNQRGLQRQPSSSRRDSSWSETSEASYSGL
In words: [Ca2+]i mobilization by IP-10 analogs, FLIPR Calcium 3 kit, CXCR-3/300-19 cells. The test is classed as cell-based. The conditions noted are these: 100 μM (FIG. 1); three independent experiments. How it is done: Binding and Calcium Mobilization: Suspensions of CXCR-3/300-19 cells were used to assess binding and intracellular calcium mobilization induced by IP-10 analogs. These are mouse pre-B lymphocytes transfected with the CXCR3 receptor, (Moser, et al). The cells were washed in RPMI media and resuspended in RPMI media supplemented with 10% FCS, then plated at 1.2×10^5 cells per well of 96-well black wall/clear bottom plates coated with poly-D-lysine (Becton Dickinson) and loaded with 100 uL fluorescent calcium indicator FLIPR Calcium 3 assay kit component A (Molecular Probes) for 1 hr at 37° C. The cells on the plates were then spun at 1000 rpm for 15 minutes at room temperature.
Each of the sequences successfully bound to the cellular receptors. The intracellular calcium mobilization in response to 25 uL (0-100000 nM final concentrations) of the appropriate and various concentrations of analogue was measured at 37° C. by monitoring fluorescence as a function of time in all the wells using the Flexstation Fluorometric Imaging Plate Reader (Molecular Devices). All analogues were run simultaneously with rhIP-10 (R&D Systems) as the standard. Table 7 provides the dosage effect of the binding of each of the IP-10 analogs on the calcium mobilization activity of the cells.
As to “acetylated-IP-10-(1-16)-[linker]-IP-10-(66-78) (Ac-VPLSRTVRCTCISISN[Aun]LKAVSKEMSKRSP; cysteine pairing not given here) [SEQ ID NO:1641, IP-10 analog, numbering of U.S. App; 11/590,210]”, the “increase in intracellular calcium mobilization” value is around 500%.

The same test, now with this note: dosage 1.2 μM; CXCR-3/300-19 cells.
“acetylated-IP-10-(1-16)-[linker]-IP-10-(66-78) (Ac-VPLSRTVRCTCISISN[Aun]LKAVSKEMSKRSP; cysteine pairing not given here) [SEQ ID NO:1641, IP-10 analog, numbering of U.S. App; 11/590,210]”: the calcium mobilization activity of the cells turned out to be 12.6%.

The test is the same for the next values; noted with them: dosage 3.7 μM; CXCR-3/300-19 cells.
On to “acetylated-IP-10-(1-16)-[linker]-IP-10-(66-78) (Ac-VPLSRTVRCTCISISN[Aun]LKAVSKEMSKRSP; cysteine pairing not given here) [SEQ ID NO:1641, IP-10 analog, numbering of U.S. App; 11/590,210]”, for which the calcium mobilization activity of the cells stood at 12.7%.

Still in this test, the particulars now being: dosage 11.1 μM; CXCR-3/300-19 cells.
As to “acetylated-IP-10-(1-16)-[linker]-IP-10-(66-78) (Ac-VPLSRTVRCTCISISN[Aun]LKAVSKEMSKRSP; cysteine pairing not given here) [SEQ ID NO:1641, IP-10 analog, numbering of U.S. App; 11/590,210]”, the calcium mobilization activity of the cells worked out at 14.1%.

Staying with this test, now noted: dosage 33.3 μM; CXCR-3/300-19 cells.
For “acetylated-IP-10-(1-16)-[linker]-IP-10-(66-78) (Ac-VPLSRTVRCTCISISN[Aun]LKAVSKEMSKRSP; cysteine pairing not given here) [SEQ ID NO:1641, IP-10 analog, numbering of U.S. App; 11/590,210]”, the calcium mobilization activity of the cells was 20%.

Still in this test, the particulars now being: dosage 100 μM; CXCR-3/300-19 cells.
As to “acetylated-IP-10-(1-16)-[linker]-IP-10-(66-78) (Ac-VPLSRTVRCTCISISN[Aun]LKAVSKEMSKRSP; cysteine pairing not given here) [SEQ ID NO:1641, IP-10 analog, numbering of U.S. App; 11/590,210]”, the calcium mobilization activity of the cells came to 52.9%.

For another test, the system named is SUP-T1 cells.
Experiment: not given
It counts as cell-based, human.
Conditions: not given
The protocol:
The experiments include contacting an SDF-1 mimetic with a cell. For the experiments, SUP-T1 cells (ATCC) were plated on the day of the experiment using 1.2×10^5 cells per well in 96-well black-wall/clear-bottom plates coated with poly-D-lysine (BD Biosciences) and loaded using a fluorescent calcium indicator. The indicator used was from a FLIPR Calcium 3 assay kit, component A, (Molecular Probes) and was loaded in the cell for 1 hr at 37° C. The intracellular calcium mobilization in response to the appropriate analogue was measured at 37° C. by monitoring the fluorescence as a function of time simultaneously in all the wells using a Flexstation Fluorometric Imaging Plate Reader (Molecular Devices).
As to “KPVSLSYRAPFRFFKKGKLKWIQEYLEKALN-NH2 (C-terminus assumed) [SEQ ID NO: 16]”, the EC50 (usually the midpoint of the concentration-response curve) turned out to be 140 nM.

As to “KPVSLSYRAPFRFFGGGKLKWIQEYLEKALN-NH2 (C-terminus assumed) [SEQ ID NO: 6]”, the EC50 worked out at 283 nM. Against the preceding molecule, the EC50 is about 2-fold higher.

Molecule “KPVSLSYRAPFRFFRGGRLKWIQEYLEKALN-NH2 [SEQ ID NO: 25]” registered an EC50 of 132 nM.

In the case of “KPVSLSYRAPFRFFGRRRLKWIQEYLEKALN-NH2 [SEQ ID NO: 29]”, the EC50 was found to be 1870 nM.

In turn, “KPVSLSYRAPFRFFGKGKLKWIQEYLEKALN-NH2 (C-terminus assumed) [SEQ ID NO: 12]” had an EC50 of 307 nM. This EC50 is about 6.1-fold lower than that of the molecule before.

“KPVSLSYRAPFRFFGRGGLKWIQEYLEKALN-NH2 (C-terminus assumed) [SEQ ID NO: 19]”: the EC50 stood at 253 nM.

For “KPVSLSYRAPFRFFRGRRLKWIQEYLEKALN-NH2 [SEQ ID NO: 30]”, a half-maximal effect (EC50) was put at 178 nM. The EC50 values of the last two molecules are within 1.5-fold of each other.

On to “KPVSLSYRAPFRFFRGRGLKWIQEYLEKALN-NH2 [SEQ ID NO: 26]”, for which a half-maximal response (EC50) required 248 nM.

For “KPVSLSYRAPFRFFGGGRLKWIQEYLEKALN-NH2 (C-terminus assumed) [SEQ ID NO: 21]”, the EC50 was found to be 361 nM.

Consider “KPVSLSYRAPFRFFGKKGLKWIQEYLEKALN-NH2 (C-terminus assumed) [SEQ ID NO: 8]”, for which the EC50 amounted to 304 nM.

For the molecule “KPVSLSYRAPFRFFGKKKLKWIQEYLEKALN-NH2 (C-terminus assumed) [SEQ ID NO: 14]”, the midpoint of the response, the EC50, lay at 92 nM.

In the case of “KPVSLSYRAPFRFFKGGKLKWIQEYLEKALN-NH2 (C-terminus assumed) [SEQ ID NO: 10]”, the EC50 was determined as 233 nM. This EC50 is about 2.5-fold higher than that of the molecule before.

The molecule “KPVSLSYRAPFRFFKKKGLKWIQEYLEKALN-NH2 (C-terminus assumed) [SEQ ID NO: 13]” yielded an EC50 of 137 nM.

On to “KPVSLSYRAPFRFFRRGGLKWIQEYLEKALN-NH2 (C-terminus assumed) [SEQ ID NO: 22]”, for which the EC50 was 171 nM.

“KPVSLSYRAPFRFFRRRGLKWIQEYLEKALN-NH2 [SEQ ID NO: 28]”: the EC50 is 597 nM.

“KPVSLSYRAPFRFFKKKKLKWIQEYLEKALN-NH2 (C-terminus assumed) [SEQ ID NO: 17]” returned an EC50 of 316 nM.

On to “KPVSLSYRAPFRFFGGRGLKWIQEYLEKALN-NH2 (C-terminus assumed) [SEQ ID NO: 20]”, for which the response was half-maximal at 307 nM (EC50). This EC50 and that of the molecule before are within 1.5-fold of each other.

Molecule “KPVSLSYRAPFRFFGRGRLKWIQEYLEKALN-NH2 [SEQ ID NO: 27]” returned an EC50 of 4320 nM.

“KPVSLSYRAPFRFFKGKGLKWIQEYLEKALN-NH2 [SEQ ID NO: 11]” displayed an EC50 of 228 nM.

For “KPVSLSYRAPFRFFGRRGLKWIQEYLEKALN-NH2 [SEQ ID NO: 23]”, the EC50 amounted to 202 nM.

“KPVSLSYRAPFRFFKKGGLKWIQEYLEKALN-NH2 (C-terminus assumed) [SEQ ID NO: 7]” registered an EC50 of 281 nM.

In turn, “KPVSLSYRAPFRFFKGKKLKWIQEYLEKALN-NH2 (C-terminus assumed) [SEQ ID NO: 15]” registered an EC50 of 157 nM.

Molecule “KPVSLSYRAPFRFFGGRRLKWIQEYLEKALN-NH2 [SEQ ID NO: 24]” had an EC50 of 173 nM. This EC50 and that of the molecule before are within 1.5-fold of each other.

With “KPVSLSYRAPFRFFRRRRLKWIQEYLEKALN-NH2 [SEQ ID NO: 32]”, the concentration for a half-maximal effect (EC50) turned out to be 1120 nM.

As to “KPVSLSYRAPFRFFRGGGLKWIQEYLEKALN-NH2 (C-terminus assumed) [SEQ ID NO: 18]”, a half-maximal response (EC50) required 219 nM.

Molecule “KPVSLSYRAPFRFFRRGRLKWIQEYLEKALN-NH2 [SEQ ID NO: 31]” gave an EC50 of 709 nM.

Molecule “KPVSLSYRAPFRFFGGKKLKWIQEYLEKALN-NH2 (C-terminus assumed) [SEQ ID NO: 9]” yielded an EC50 of 225 nM.

In turn, “KPVSLSYRAPFRFFGKGGLKWIQEYLEKALN-NH2 (C-terminus assumed) [SEQ ID NO: 4]” yielded an EC50 of 312 nM. This EC50 and that of the molecule before are within 1.5-fold of each other.

In turn, “KPVSLSYRAPFRFFGGKGLKWIQEYLEKALN-NH2 [SEQ ID NO: 5]” displayed an EC50 of 211 nM.

Another test has as its system high affinity receptors on human immature monocyte-derived dendritic cells (iDCs).
Experiment: not given
The conditions noted are these: cited from earlier work.
On to B1, for which the Kd (usually the free concentration of one partner at which half of the binding sites on the other are occupied at equilibrium, for simple one-to-one binding) was 2 nM.

The subject of the next test is endothelial cell chemotaxis.
Experiment: not given
The following applies: in vitro; cited from earlier work.
Regarding B1, the “concentration blocking endothelial cell chemotaxis (as low as)” value was 1 nmol/L.

(Values after US20070160574A1, “Design of CXC chemokine analogs for the treatment of human diseases” (priority 2000, published 2007).)
